Reference: ChEMBL document CHEMBL1201862, “PubChem BioAssay data set” (2004)
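Compound exposure: 48 hours, 5 concentrations, 96-well plates. GI50 is the concentration that inhibits growth by half.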 The source made the active and inactive calls. Rule as the data show it: active = GI50 up to about 1.1 µM and inactive = higher.

Key:
Assay in all cases: DTP human tumour cell line panel, 48 h
K562 = test system: K562
HT-29 = test system: HT-29
A498 = test system: A498
SK-OV-3 = test system: SK-OV-3
CCRF-CEM = test system: CCRF-CEM
UO-31 = test system: UO-31
HCT-116 = test system: HCT-116
HOP-18 = test system: HOP-18
DMS-273 = test system: DMS-273
XF498 = test system: XF498
NCI-H460 = test system: NCI-H460
SF-539 = test system: SF-539
SK-MEL-28 = test system: SK-MEL-28
SNB-19 = test system: SNB-19
EKVX = test system: EKVX
RPMI-8226 = test system: RPMI-8226
HOP-62 = test system: HOP-62
SR = test system: SR

SMILES | GI50 (K562) | GI50 (HT-29) | GI50 (A498) | GI50 (SK-OV-3) | GI50 (CCRF-CEM) | GI50 (UO-31) | GI50 (HCT-116) | GI50 (HOP-18) | GI50 (DMS-273) | GI50 (XF498) | GI50 (NCI-H460) | GI50 (SF-539) | GI50 (SK-MEL-28) | GI50 (SNB-19) | GI50 (EKVX) | GI50 (RPMI-8226) | GI50 (HOP-62) | GI50 (SR)
Cn1cc(NC(=O)c2cc(NC(=O)CCCCCC(=O)Nc3cc(C(=O)Nc4cc(C(=O)NCCC(=N)N)n(C)c4)n(C)c3)cn2C)cc1C(=O)NCCC(=N)N | 83.6 µM (inactive) | > 100 µM (inactive) | > 100 µM (inactive) | > 100 µM (inactive) | > 100 µM (inactive) | > 100 µM (inactive) | 67.1 µM (inactive) | > 100 µM (inactive) | 67.3 µM (inactive) | > 100 µM (inactive) | 26.4 µM (inactive) | > 100 µM (inactive) | 25.2 µM (inactive) | > 100 µM (inactive) | > 100 µM (inactive) | – | – | –
Cn1c(=O)c(C(=O)NC(=O)NCCCCCOC(=O)CCCCCCCCCCC(=O)OCCCCCNC(=O)NC(=O)c2cn(Cc3ccccc3)c(=O)n(C)c2=O)cn(Cc2ccccc2)c1=O | > 100 µM (inactive) | > 100 µM (inactive) | > 100 µM (inactive) | > 100 µM (inactive) | > 100 µM (inactive) | > 100 µM (inactive) | > 100 µM (inactive) | > 100 µM (inactive) | > 100 µM (inactive) | > 100 µM (inactive) | > 100 µM (inactive) | > 100 µM (inactive) | > 100 µM (inactive) | > 100 µM (inactive) | > 100 µM (inactive) | > 100 µM (inactive) | > 100 µM (inactive) | –
Nc1ncnc2c1ncn2C1OC(CSCc2ccc(Cl)cc2)C(O)C1O (stereo not drawn) | 30 µM (inactive) | 22.1 µM (inactive) | 23.8 µM (inactive) | > 100 µM (inactive) | 31.3 µM (inactive) | 18.9 µM (inactive) | 19.8 µM (inactive) | 42 µM (inactive) | 30.1 µM (inactive) | 22.8 µM (inactive) | > 100 µM (inactive) | 29.4 µM (inactive) | – | 35.9 µM (inactive) | 81.7 µM (inactive) | 21.8 µM (inactive) | 17 µM (inactive) | –
CNC1=Nc2ccc(Cl)cc2C(OP(=O)(N2CCOCC2)N2CCOCC2)=NC1 | > 100 µM (inactive) | > 100 µM (inactive) | > 100 µM (inactive) | – | > 100 µM (inactive) | > 100 µM (inactive) | > 100 µM (inactive) | > 100 µM (inactive) | > 100 µM (inactive) | > 100 µM (inactive) | > 100 µM (inactive) | > 100 µM (inactive) | > 100 µM (inactive) | > 100 µM (inactive) | 84.9 µM (inactive) | > 100 µM (inactive) | – | > 100 µM (inactive)
CN(C=O)/C=C/c1cc(O)ccc1O | 24.9 µM (inactive) | 32.6 µM (inactive) | > 68.2 µM (inactive) | > 86.1 µM (inactive) | 18.7 µM (inactive) | 32 µM (inactive) | 33 µM (inactive) | 14.6 µM (inactive) | > 39.4 µM (inactive) | – | > 60.7 µM (inactive) | 38.3 µM (inactive) | > 42.1 µM (inactive) | > 72.8 µM (inactive) | 40.6 µM (inactive) | 26.1 µM (inactive) | > 43 µM (inactive) | 20.5 µM (inactive)
CN(C)CC/C(=N\Nc1ccc(Cl)cc1Cl)c1ccccc1 | 14.3 µM (inactive) | 14.3 µM (inactive) | 16.4 µM (inactive) | 12.3 µM (inactive) | 12.7 µM (inactive) | 2.37 µM (inactive) | 13.8 µM (inactive) | 8.85 µM (inactive) | 13.8 µM (inactive) | – | 13.8 µM (inactive) | 18.1 µM (inactive) | 15.2 µM (inactive) | 16.1 µM (inactive) | 20.6 µM (inactive) | 3.94 µM (inactive) | 13.9 µM (inactive) | 12 µM (inactive)
CC(=O)/C=C/c1cccc(N=S)c1 | 4.62 µM (inactive) | 6.28 µM (inactive) | 27 µM (inactive) | > 48.1 µM (inactive) | 8.24 µM (inactive) | 39.4 µM (inactive) | 1.39 µM (inactive) | 50 µM (inactive) | 7.06 µM (inactive) | > 100 µM (inactive) | > 36.9 µM (inactive) | 5.9 µM (inactive) | 16.5 µM (inactive) | > 43.2 µM (inactive) | > 40.8 µM (inactive) | 3.63 µM (inactive) | > 63.5 µM (inactive) | 7.78 µM (inactive)
CC(=O)c1ccc(NC(=O)C(=O)C(C(=O)/C=C/c2ccccc2)C2OC(=O)c3ccccc32)cc1 (stereo not drawn) | 74.5 µM (inactive) | > 100 µM (inactive) | > 100 µM (inactive) | > 100 µM (inactive) | 53.5 µM (inactive) | > 100 µM (inactive) | > 100 µM (inactive) | > 100 µM (inactive) | > 100 µM (inactive) | > 100 µM (inactive) | > 100 µM (inactive) | > 100 µM (inactive) | > 100 µM (inactive) | > 100 µM (inactive) | > 100 µM (inactive) | 54.2 µM (inactive) | > 100 µM (inactive) | 60.8 µM (inactive)
[N-]=[N+]=Nc1ncnc2c1sc(=S)n2-c1ccccc1 | > 100 µM (inactive) | > 100 µM (inactive) | 78.9 µM (inactive) | > 100 µM (inactive) | > 100 µM (inactive) | > 100 µM (inactive) | > 100 µM (inactive) | > 100 µM (inactive) | > 100 µM (inactive) | > 100 µM (inactive) | > 100 µM (inactive) | > 100 µM (inactive) | > 100 µM (inactive) | > 100 µM (inactive) | > 100 µM (inactive) | > 100 µM (inactive) | 21.6 µM (inactive) | > 100 µM (inactive)
C=C1C(=O)OC2/C=C(/C)C3CC(O)C(C)(CC(OC(=O)/C(C)=C/C)C12)O3 (stereo not drawn) | 1.69 µM (inactive) | 3.76 µM (inactive) | 10.4 µM (inactive) | 36.1 µM (inactive) | 0.508 µM (active) | 5.86 µM (inactive) | 1.53 µM (inactive) | 17.4 µM (inactive) | 2.54 µM (inactive) | 3.56 µM (inactive) | 6.18 µM (inactive) | 2.14 µM (inactive) | 2.52 µM (inactive) | 1.97 µM (inactive) | 3.86 µM (inactive) | 1.83 µM (inactive) | 25.1 µM (inactive) | –
COC(CC1(OC)OC(=O)C=C1N)OC (stereo not drawn) | > 100 µM (inactive) | > 100 µM (inactive) | > 100 µM (inactive) | > 100 µM (inactive) | > 100 µM (inactive) | > 100 µM (inactive) | > 100 µM (inactive) | > 100 µM (inactive) | > 100 µM (inactive) | – | > 100 µM (inactive) | > 100 µM (inactive) | > 100 µM (inactive) | > 100 µM (inactive) | > 100 µM (inactive) | > 100 µM (inactive) | > 100 µM (inactive) | > 100 µM (inactive)
Cc1ccc(NC(=O)CCc2n[nH]c(=S)o2)cc1 | 44.6 µM (inactive) | > 100 µM (inactive) | > 100 µM (inactive) | – | 62.8 µM (inactive) | > 100 µM (inactive) | > 100 µM (inactive) | > 100 µM (inactive) | > 100 µM (inactive) | > 100 µM (inactive) | > 100 µM (inactive) | > 100 µM (inactive) | > 100 µM (inactive) | > 100 µM (inactive) | > 100 µM (inactive) | – | > 100 µM (inactive) | > 100 µM (inactive)
CC(=O)Nc1ccccc1Sc1ccccc1 | > 100 µM (inactive) | > 100 µM (inactive) | > 100 µM (inactive) | > 100 µM (inactive) | > 100 µM (inactive) | 28.6 µM (inactive) | > 100 µM (inactive) | > 100 µM (inactive) | > 100 µM (inactive) | > 100 µM (inactive) | > 100 µM (inactive) | > 100 µM (inactive) | > 100 µM (inactive) | > 100 µM (inactive) | > 100 µM (inactive) | > 100 µM (inactive) | > 100 µM (inactive) | –
CC(C)(C)OC(=O)c1cccnc1/C=N/O | > 100 µM (inactive) | > 100 µM (inactive) | – | > 100 µM (inactive) | 67.1 µM (inactive) | > 100 µM (inactive) | > 100 µM (inactive) | > 100 µM (inactive) | > 100 µM (inactive) | > 100 µM (inactive) | 48.4 µM (inactive) | > 100 µM (inactive) | > 100 µM (inactive) | > 100 µM (inactive) | > 100 µM (inactive) | – | > 100 µM (inactive) | > 100 µM (inactive)
CC(=O)CC(=O)CCC(=O)Nc1cccc(C(F)(F)F)c1 | > 100 µM (inactive) | > 100 µM (inactive) | > 100 µM (inactive) | > 100 µM (inactive) | > 100 µM (inactive) | > 100 µM (inactive) | > 100 µM (inactive) | > 100 µM (inactive) | > 100 µM (inactive) | > 100 µM (inactive) | > 100 µM (inactive) | > 100 µM (inactive) | – | > 100 µM (inactive) | > 100 µM (inactive) | > 100 µM (inactive) | > 100 µM (inactive) | –
O=C(Nc1nc2ccccc2n1Cc1ccccc1)NC12CC3CC(CC(C3)C1)C2 | > 100 µM (inactive) | > 100 µM (inactive) | – | 27.9 µM (inactive) | > 100 µM (inactive) | > 100 µM (inactive) | 30.4 µM (inactive) | 44.8 µM (inactive) | 16.9 µM (inactive) | 17.8 µM (inactive) | 41 µM (inactive) | 36 µM (inactive) | 79.3 µM (inactive) | 44.1 µM (inactive) | > 100 µM (inactive) | > 100 µM (inactive) | 32.6 µM (inactive) | 80.2 µM (inactive)
